Source: PubChem BioAssay (NCI)
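Exposure lasted 48 hours, with cells grown in 96-well plates and compounds tested at five concentrations. TGI denotes the concentration required for complete inhibition of growth.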

Columns and labels:
Test in all cases: NCI tumour cell line growth inhibition, 48 h
[1] = test system: DLD-1 colon
[2] = test system: DMS 273 small cell lung
[3] = test system: SNB-78 CNS
[4] = test system: KM20L2 colon
[5] = test system: DMS 114 small cell lung
[6] = test system: P388 leukemia
[7] = test system: SN12K1 renal
[8] = test system: XF 498 CNS
[9] = test system: HOP-18 NSCLC
[10] = test system: P388/ADR leukemia
[11] = test system: LXFL 529 NSCLC
[12] = test system: RXF-631 renal

SMILES	TGI [1]	TGI [2]	TGI [3]	TGI [4]	TGI [5]	TGI [6]	TGI [7]	TGI [8]	TGI [9]	TGI [10]	TGI [11]	TGI [12]
C[n+]1c2ccccc2c(CNc2ccc(S(=O)(=O)N=C(N)N)cc2)c2ccccc21	65.5 µM	24.2 µM	78.1 µM	59.6 µM	20.8 µM							
Cc1cc(NC(=S)Nc2ccccc2)c(NC(=S)Nc2ccccc2)cc1C	> 100 µM	> 100 µM		> 92 µM		13.5 µM	> 59.1 µM	84 µM	> 100 µM	19.1 µM		
COC(=O)CCC(=O)CC(=O)C1=NS(=O)(=O)c2nc(S(N)(=O)=O)c(Cl)cc2N1	> 100 µM	> 100 µM		> 100 µM	> 100 µM			> 100 µM	> 100 µM		> 100 µM	> 100 µM
